The values that follow come from US20230220480A1, “IRON-SCORE AND IN VITRO METHOD FOR IDENTIFYING HIGH RISK DLBCL SUBJECTS AND THERAPEUTIC USES AND METHODS” (CENTRE NATIONAL DE LA RECHERCHE SCIENTIFIQUE (CNRS), priority 2019, published 2023).

Data set [1] relates to DLBCL-derived cell lines (U2932, DB and OCI-LY3). Briefly: Concentration matrix test, synergy matrix (Bliss equation). It counts as cell-based, human. The following applies: DB cell line, 96 h, combined with Doxorubicin. The procedure: The DB DLBCL-derived cell lines were treated with increasing concentrations of Ironomycin combined with Doxorubicin for 96 h and cell viability was tested by ATP quantification to obtain the viability matrix. The synergy matrix was calculated as described in Material and Methods (A).
Three DLBCL-derived cell lines were treated with increasing concentrations of Ironomycin combined with Venetoclax for 96 h and cell viability was tested by ATP quantification to obtain the viability matrix. The synergy matrix was calculated as described in Material and Methods. FIG. 8A: U2932 cell line; FIG. 8B: DB cell line; FIG. 8C: OCI-LY3 cell line.
Two DLBCL-derived cell lines were treated with increasing concentrations of Ironomycin combined with Ibrutinib for 96 h and cell viability was tested by ATP quantification to obtain the viability matrix. The synergy matrix was calculated as described in Material and Methods. […]
Two DLBCL-derived cell lines were treated with increasing concentrations of Ironomycin combined with Venetoclax for 96 h and cell viability was tested by ATP quantification to obtain the viability matrix. The synergy matrix was calculated as described in Material and Methods. […]
Three DLBCL-derived cell lines were treated with increasing concentrations of Ironomycin combined with Venetoclax for 96 h and cell viability was tested by ATP quantification to obtain the viability matrix. […]

The test system of data set [2] is OCI-LY3 and DB cell lines. From the text: The inventors further investigated the effect of Iron supplementation on the cell death induced by these treatments. Iron chelators concentrations were chosen according the maximal plasmatic concentration achievable in the patient (Nisbet-Brown et al., 2003).
Chaetocin was used as positive control of ROS production inhibited by GSH (Isham et al., 2007).

The subject of a further data set is DLBCL cells. Briefly: DNA double strand breaks, Phospho-H2A.X (Ser139) foci and western blot. Format: cell-based, human. The following applies: 24 hours. Here is the method:
DSB induction was monitored by Phospho-H2A·X (Ser139) staining and nuclei were stained with DAPI. Foci were visualized by fluorescence microscopy. Original magnification X 63. Scale bar: 10 μm.
Cells were treated with iron chelators (80 μM Deferasirox), and Ironomycin (20 nM and 100 nM) during 24H. Protein levels of Phospho-H2A·X (S139) were analyzed by western blot (D)
At least 300 cells were counted for each group. Statistical difference was tested using a Fisher's exact test. * P<0.05, ** P<0.01, *** P<0.001, **** P<0.0001. NS: non-significant.

The test system of the next data set is DB and OCI-LY3 cells. Briefly: DNA fiber assay (replication fork progression). Format: cell-based, human. The procedure:
DB and OCI-LY3 cells were labeled with IdU, treated with vehicle, gemcitabine (10 μM) or Ironomycin (100 μM) and labeled with CIdU (30 minutes each), and then harvested for DNA fiber assay (A and B).
DB cells were pretreated or not by deoxynucleotides for 30 minutes, labeled with IdU, treated with vehicle, gemcitabine (10 μM) or Ironomycin (100 μM) and labeled with CIdU (30 minutes each), and then harvested for DNA fiber assay (C and D).
Boxplot represent median±interquartile ranges and dots represent outliers of track length (expressed in μm). Results represent at least 200 track measurements. * P<0.05, **** P<0.0001, NS: non-significant, Mann-Whitney test.
Eukaryotic cells contain numerous iron-requiring proteins such as iron-sulfur (Fe—S) cluster proteins, hemoproteins and ribonucleotide reductases that play key roles in DNA replication and require iron as a cofactor (Zhang, 2014). The inventors next monitored the effect of ironomycin on fork progression in DLBCL cells using DNA fiber analysis. To this end, DLBCL cell lines were pulse labeled with 10 μM IdU and 100 μM CIdU and the length of CIdU tracks was measured to estimate the distance covered by individual forks during the pulse. […] Gemcitabine was used as a positive control. […]

The subject of the next data set is CD34+ cells. Briefly: Hematopoietic progenitor colony forming units (CFU) assay. As to conditions: 14 days.

Procedure for CD34+ cells: Hematopoietic progenitor colony-forming units assay were performed with CD34+ cells from apheresis of 5 donors. […] CFU-C, CFU-E and CFU-GM were counted after 14 days culture (C).
Mobilized peripheral blood of donor were collected using an apheresis machine. Cells were CD34+ enriched by immuno-magnetic cell separation and fluorescence activated cell sorting (FACS).
About 250 viable CD34+ cells/mL were cultured in Methocult GF H84434 Medium (Stem Cell, #84434). Using a 3 mL syringe attached to a 16 gauge blunt end needle, 1 mL of the mixture was dispensed into 2 35 mm dishes.
Dishes were incubated at 37° C., in 5% C02, with >95% humidity for 14 days.

On to `C#CCN[C@@H]1C=C[C@]2(O[C@H]([C@@H](CC)C(=O)[C@@H](C)[C@@H](O)[C@H](C)[C@@H]3O[C@@H]([C@@H](CC)C(=O)O)CC[C@@H]3C)[C@@H](C)C[C@H]2C)O[C@@]12CC[C@@](C)([C@H]1CC[C@](O)(CC)[C@H](C)O1)O2` [Ironomycin], for which the “potentiation of doxorubicin toxicity (synergy matrix)” value in data set [1] is given as “significantly potentialized the toxicity of doxorubicin”. The “caspase activation associated with apoptosis” value in data set [2] is “activation of caspase-3 and −7”. In addition, in data set [2] (Annexin V and PARP cleavage), the induction of apoptosis entry is given as “induces apoptosis”. Moreover, in data set [2] (Iron(III) chloride supplementation), the “effect of iron supplementation on drug-induced apoptosis / cytotoxicity” value is given as “did not affect”. Moreover, in data set [2] (P<0.001), the “inhibition of induced apoptosis by Oph-Q-VD pan-caspase inhibitor” value is given as “partially inhibited”. In addition, the “DNA double strand breaks (γH2AX foci, H2AX phosphorylation)” value in the data set on DLBCL cells is recorded as “induced DNA double strand breaks”. Further, in the data set with DB and OCI-LY3 cells (DB cells pretreated by deoxynucleotides for 30 minutes), the “effect of deoxynucleotide supplementation on replication fork delay” value was “partially reversed”. Further, the “length of CIdU tracks compared to control cells” value with DB and OCI-LY3 cells (P<0.0001) was “significantly shorter”. Moreover, the “toxicity on CFU-C, CFU-E and CFU-GM formation” value in the data set with CD34+ cells (10 nM, N=5) is listed as “no significant toxicity”. Also, in the data set on CD34+ cells (50 and 100 nM), the “hematopoietic toxicity compared to conventional chemotherapy” value is recorded as “significant lower hematopoietic toxicity”.
